Among the data in patent US6472391B2, “Nitrogen-containing heterocyclic compounds” (Millennium Pharmaceuticals, Inc., priority 1996, dated 2002) are melting point values, retold here.

A word on the melting point: it is the temperature, or range, at which the solid turns liquid.

`O=C(Nc1ccc(Oc2ccccc2)cc1)N1CCN(c2cc(C(F)(F)F)nc3ccccc23)CC1` [Compound 397, N-(4-Phenoxyphenyl)-4-(2-trifluoromethyl-4-quinolyl)-1-piperazinecarboxamide] registered a melting point of 203 to 204 °C.
For the molecule `COc1cc2ncnc(N3CCN(C(=O)Nc4ccc(Cl)cc4Cl)CC3)c2cc1OC` [Compound 53, N-(2,4-Dichlorophenyl)-4-(6,7-dimethoxy-4-quinazolinyl)-1-piperazinecarboxamide], the melting point fell in the range of 166 to 167 °C.
On to `O=C(Nc1ccc(Oc2ccccc2)cc1)N1CCN(c2ncnc3c(Cl)cc(Cl)cc23)CC1` [Compound 377, 4-(6,8-Dichloro-4-quinazolinyl)-N-(4-phenoxyphenyl)-1-piperazinecarboxamide], for which the melting point lay in the range of 195 to 196 °C.
Consider `CCOc1cc2ncnc(N3CCN(C(=S)NCc4ccccc4)CC3)c2cc1OC` [Compound 337, N-Benzyl-4-(7-ethoxy-6-methoxy-4-quinazolinyl)-1-piperazinethiocarboxamide], for which the melting point lay within 168 to 169 °C.
In the case of `COc1cc2ccnc(N3CCN(C(=S)NCc4ccccc4)CC3)c2cc1OC` [Compound 424, N-Benzyl-4-(6,7-dimethoxy-1-isoquinolyl)-1-piperazinethiocarboxamide], the melting point lay in the range of 171 to 172 °C.
Molecule `CCCCc1ccc(NC(=S)N2CCN(c3ncnc4cc(OC)c(OC)cc34)CC2)cc1` [Compound 21, N-(4-Butylphenyl)-4-(6,7-dimethoxy-4-quinazolinyl)-1-piperazinethiocarboxamide] yielded a melting point of 171 to 173 °C.
The value for `COc1cc2ncnc(N3CCN(C(=S)Nc4cccc(Cl)c4)CC3)c2cc1OC` [Compound 175, N-(3-Chlorophenyl)-4-(6,7-dimethoxy-4-quinazolinyl)-1-piperazinethiocarboxamide] was 222 to 224 °C; that for `O=C(Nc1ccc(Oc2ccccc2)cc1)N1CCN(c2ccnc3ccc(Cl)cc23)CC1` [Compound 399, 4-(6-Chloro-4-quinolyl)-N-(4-phenoxyphenyl)-1-piperazinecarboxamide] was 188 to 189 °C.
Turning to `CCn1c(=O)n(C)c2cc3c(N4CCN(C(=O)Nc5ccc(Oc6ccccc6)cc5)CC4)ncnc3cc21` [Compound 387, 4-(1,3-Dihydro-3-ethyl-1-methyl-2-oxo-2H-imidazo[4,5-g]quinazolin-8-yl)-N-(4-phenoxyphenyl)-1-piperazinecarboxamide], the melting point was 250 to 251 °C.
For `COc1ccc(OC)c(NC(=O)N2CCN(c3ncnc4cc(OC)c(OC)cc34)CC2)c1` [Compound 65, N-(2,5-Dimethoxyphenyl)-4-(6,7-Dimethoxy-4-quinazolinyl)-1-piperazinecarboxamide], the melting point is 215 to 217 °C.
Take `COc1cc2ncnc(N3CCN(C(=S)NCC(c4ccccc4)c4ccccc4)CC3)c2cc1OC` [Compound 11, 4-(6,7-Dimethoxy-4-quinazolinyl)-N-(2,2-diphenylethyl)-1-piperazinethiocarboxamide]: the melting point was in the range of 93 to 94 °C.
`COc1cc2ncnc(N3CCN(C(=S)Nc4ccc(Oc5ccc([N+](=O)[O-])cc5)cc4)CC3)c2cc1OC` [Compound 62, 4-(6,7-Dimethoxy-4-quinazolinyl)-N-[4-(4-nitrophenoxy)phenyl]-1-piperazinethiocarboxamide] yielded a melting point of 204 to 207 °C.
For `COc1cc2ncnc(N3CCN(C(=O)Nc4ccc(C(C)(C)C)cc4)CC3)c2cc1OC` [Compound 156, N-(4-tert-Butylphenyl)-4-(6,7-dimethoxy-4-quinazolinyl)-1-piperazinecarboxamide], the melting point lay in the range of 109 to 111 °C.
In the case of `CCOc1cc2ncnc(N3CCN(C(=S)NCc4ccccc4)CC3)c2cc1OCC` [Compound 353, N-Benzyl-4-(6,7-diethoxy-4-quinazolinyl)-1-piperazinethiocarboxamide], the melting point was 134 to 136 °C.
The value for `COc1cc2ncnc(N3CCN(C(=S)NCCN4CCOCC4)CC3)c2cc1OC` [Compound 142, 4-(6,7-Dimethoxy-4-quinazolinyl)-N-(2-morpholinoethyl)-1-piperazinethiocarboxamide] was 79 to 81 °C; that for `COc1cc2ncnc(N3CCCN(C(=S)NCc4cccnc4)CC3)c2cc1OC.Cl.Cl` was 177 to 183 °C; that for `COc1cc2ncnc(N3CCN(C(=O)Nc4cccc(C(C)C)c4)CC3)c2cc1OC` [Compound 150, 4-(6,7-Dimethoxy-4-quinazolinyl)-N-(3-isopropylphenyl)-1-piperazinecarboxamide] was 196 to 197 °C.
`COc1cc2ncnc(N3CCN(C(=O)Nc4cc(C(F)(F)F)cc(C(F)(F)F)c4)CC3)c2cc1OC` [Compound 32, N-[3,5-Bis(trifluoromethyl)phenyl]-4-(6,7-dimethoxy-4-quinazolinyl)-1-piperazinecarboxamide] gave a melting point of 251 to 252 °C.
The value for `O=C(Nc1ccc(Oc2ccccc2)cc1)N1CCN(c2nnc(Cl)c3ccccc23)CC1` [Compound 416, 4-(4-Chloro-1-phthalazinyl)-N-(4-Phenoxyphenyl)-1-piperazinecarboxamide] was 196 to 197 °C; that for `COc1cc2ncnc(N3CCN(C(=O)NCc4cccnc4)CC3)c2cc1OC` [Compound 266, 4-(6,7-Dimethoxy-4-quinazolinyl)-N-(3-picolyl)-1-piperazinecarboxamide] was 188 to 189 °C; that for `COc1ccc(CNC(=S)N2CCN(c3ncnc4cc(OC)c(OC)cc34)CC2)cc1OC` [Compound 205, N-(3,4-Dimethoxybenzyl)-4-(6,7-dimethoxy-4-quinazolinyl)-1-piperazinethiocarboxamide] was 196 to 197 °C.
`CCOC(=O)c1cnc2cc(OC)c(OC)cc2c1N1CCN(C(=S)NCc2ccccc2)CC1` [Compound 409, N-Benzyl-4-(6,7-dimethoxy-3-ethoxycarbonyl-4-quinolyl)-1-piperazinethiocarboxamide] displayed a melting point of 174 to 175 °C.
In the case of `FC(F)(F)Oc1ccc2nccc(N3CCN(C(=S)NCc4ccccc4)CC3)c2c1` [Compound 403, N-Benzyl-4-(6-trifluoromethoxy-4-quinolyl)-1-piperazinethiocarboxamide], the melting point was in the range of 70 to 71 °C.
In the case of `COc1cc2ncnc(N3CCN(C(=S)Nc4ccc5c(c4)OCCO5)CC3)c2cc1OC` [Compound 209, 4-(6,7-Dimethoxy-4-quinazolinyl)-N-(3,4-ethylenedioxyphenyl)-1-piperazinethiocarboxamide], the melting point lay in the range of 165 to 166 °C.
The value for `CC(=O)c1ccc(NC(=O)N2CCN(c3ncnc4c(Cl)cccc34)CC2)cc1` [Compound 325, N-(4-Acetylphenyl)-4-(8-chloro-4-quinazolinyl)-1-piperazinecarboxamide] was 208 to 209 °C.
Turning to `COc1cc2ncnc(N3CCN(C(=O)Nc4cccc(Br)c4)CC3)c2cc1OC` [Compound 44, N-(3-Bromophenyl)-4-(6,7-dimethoxy-4-quinazolinyl)-1-piperazinecarboxamide], the melting point lay in the range of 221 to 222 °C.
`COc1cc(OC)c2ncnc(N3CCN(C(=O)Nc4ccc(Oc5ccccc5)cc4)CC3)c2c1` [Compound 381, 4-(6,8-Dimethoxy-4-quinazolinyl)-N-(4-phenoxyphenyl)-1-piperazinecarboxamide] had a melting point of 109 to 110 °C.
`COc1cc2ncnc(N3CCN(C(=S)Nc4ccc5ccc6cccc7ccc4c5c67)CC3)c2cc1OC` displayed a melting point of 140 to 145 °C.
`O=C(Nc1ccc(Oc2ccccc2)cc1)N1CCN(c2ncnc3ccc([N+](=O)[O-])cc23)CC1` [Compound 311, 4-(6-Nitro-4-quinazolinyl)-N-(4-phenoxyphenyl)-1-piperazinecarboxamide] yielded a melting point of 170 to 171 °C.
The value for `COc1cc2ncnc(N3CCN(C(=S)NC(c4ccccc4)c4ccccc4)CC3)c2cc1OC` [Compound 133, 4-(6,7-Dimethoxy-4-quinazolinyl)-N-diphenylmethyl-1-piperazinethiocarboxamide] was 128 to 129 °C; that for `COc1cc2ncnc(N3CCN(C(=S)Nc4ccc(SC(F)(F)F)cc4)CC3)c2cc1OC` [Compound 220, 4-(6,7-Dimethoxy-4-quinazolinyl)-N-(4-trifluoromethylthiophenyl)-1-piperazinethiocarboxamide] was 128 to 131 °C.
As to `COc1cc2ncnc(N3CCN(C(=O)Nc4ccc(Cl)c(C(F)(F)F)c4)CC3)c2cc1OC` [Compound 49, N-[4-Chloro-3-(trifluoromethyl)phenyl]-4-(6,7-dimethoxy-4-quinazolinyl)-1-piperazinecarboxamide], the melting point was 237 to 238 °C.
In turn, `S=C(NCc1cccnc1)N1CCN(c2ncnc3ccccc23)CC1` [Compound 286, N-(3-Picolyl)-4-(4-quinazolinyl)-1-piperazinethiocarboxamide] gave a melting point of 193 to 194 °C.
Regarding `COc1cc2ncnc(N3CCN(C(=O)Nc4ccc(I)cc4)CC3)c2cc1OC` [Compound 46, 4-(6,7-Dimethoxy-4-quinazolinyl)-N-(4-iodophenyl)-1-piperazinecarboxamide], the melting point fell in the range of 238 to 242 °C.
The value for `COc1cc2ncnc(N3CCN(C(=S)NCc4cccc(F)c4)CC3)c2cc1OC` [Compound 171, 4-(6,7-Dimethoxy-4-quinazolinyl)-N-(3-fluorobenzyl)-1-piperazinethiocarboxamide] was 100 to 102 °C.
The same measure for `O=C(Nc1ccc(Oc2ccccc2)cc1)N1CCN(c2ncnc3ccc(Cl)cc23)CC1` [Compound 301, 4-(6-Chloro-4-quinazolinyl)-N-(4-phenoxyphenyl)-1-piperazinecarboxamide]: 116 to 120 °C; for `O=C(Nc1ccc(Oc2ccccc2)cc1)N1CCN(c2ncnc3ccccc23)CC1` [Compound 104, N-(4-Phenoxyphenyl)-4-(4-quinazolinyl)-1-piperazinecarboxamide]: 74 to 75 °C; for `CCn1c(=O)n(C)c2cc3c(N4CCN(C(=S)NCc5ccccc5)CC4)ncnc3cc21` [Compound 388, N-Benzyl-4-(1,3-dihydro-3-ethyl-1-methyl-2-oxo-2H-imidazo[4,5-g]quinazolin-8-yl)-1-piperazinethiocarboxamide]: 207 to 208 °C.
